Assay results published in US10821079B2, “PKC activators and combinations thereof” (Cognitive Research Enterprises, Inc., priority 2011, dated 2020).

Assays:
synaptophysin = assay: Synaptophysin Western Blot in primary rat hippocampal neurons; type: cell-based; conditions: ASPD + DCPLA-ME
Protocol: (§1) Cells were harvested in homogenizing buffer containing 10 mM Tris-Cl (pH 7.4), 1 mM PMSF (phenylmethylsulfonyl fluoride), 1 mM EGTA, 1 mM EDTA, 50 mM NaF, and 20 μM leupeptin and were lysed by sonication. The homogenate was centrifuged at 100,000×g for 15 min at 4° C. to obtain the cytosolic fraction (supernatant) and membrane (pellet). The pellet was resuspended in the homogenizing buffer by sonication. Protein concentration was measured using the Coomassie Plus (Bradford) Protein Assay kit (Pierce, USA). Following quantification, 20 μg of protein from each sample was subjected to SDS-PAGE analysis in 4-20% gradient Tris-Glycine gel (Invitrogen, USA). The separated protein was then transferred to nitrocellulose membrane. The membrane was blocked with BSA at room temperature for 15 min and was incubated with primary antibody over night at 4° C. After the incubation, it was washed three times with TBS-T (Tris Buffered saline-Tween 20) and further incubated with alkaline phosphatase conjugated secondary antibody (Jackson Immunoresearch Laboratories, USA) at 1:10,000 dilution for 45 min. The membrane was finally washed three times with TBS-T and developed using the 1-step NBT-BCIP substrate (Pierce, USA). Western Blot was imaged in the ImageQuant RT-ECL (GE Life Sciences, Piscataway, N.J.) and densitometric quantification was performed using the IMAL software (Blanchette Rockefeller Neurosciences Institute, Morgantown, W. Va.). For translocation assays, PKC activation was represented as the percentage of total protein in the membrane (membrane/cytosol+membrane).

rat hippocampal neurons = assay: Differentiation of seven day old rat hippocampal neurons; type: cell-based; conditions: RA 10 μM, bryostatin 1 0.27 nM, DCPLA-ME 100 nM
Protocol: FIG. 27: PKC-ε specific activation induces maturation and differentiation in rat primary neurons. Seven day old culture of rat hippocampal neurons were treated with RA (10 μM), 0.27 nM bryostatin 1(Bry), RA+bryostatin 1(RA+Bry), DCPLA-ME (100 nM) or RA+DCPLA-ME for 48 h. FIG. 27A—Confocal micrographs showing rat hippocampal neurons stained for MAP-2 (green), synaptophysin (red), and DAPI (blue). FIG. 27B—Graphical representation of number of dendritic branches per neuron. PKCε activation by RA+bryostatin 1(RA+Bry), DCPLA-ME or RA+DCPLA-ME increase the dendritic branching by 2-fold. FIG. 27C—Mean fluorescence intensity for MAP-2 or synaptophysin calculated from eight random 225 μm2 of confocal images. Data are represented as mean±SE. * represents significance with respect to control (* p<0.05, ** p<0.005 and *** p<0.0005).
Dendritic branching was increased in the cells treated with RA and a PKC activator, as evidenced by the MAP-2 staining. Similarly, the synaptic vesicle pool increased was also seen by increased synaptophysin.
The effect of RA+bryostatin 1 on development of primary neurons was also investigated. Seven day old rat hippocampal neurons were treated with RA, bryostatin 1, RA+bryostatin 1, DCPLA-methyl ester (“DCPLA-ME”) or RA+DCPLA-ME for 48 hr. RA+bryostatin produced a greater increase of MAP2 and synaptophysin than RA or bryostatin alone (FIGS. 27A & C).

[1] = rats; cited from earlier work
PKC-α-RACK1 = target: T1, PKC-α-RACK1 (Homo sapiens, UniProt P17252); type: cell-based
T1 construct: host or cells: SH-SY5Y neuroblastoma cells
Protocol: Cells were grown in two chambered slides (Nunc, USA) at low density. For immunofluorescence staining, the cells were washed with PBS (pH 7.4) and fixed with 4% paraformaldehyde for 4 min. Following fixation, the cells were blocked and permeabilized with 5% serum and 0.3% Triton X 100 in 1×PBS for 30 min. The cells were washed three times with 1×PBS and incubated with primary antibodies for 1 hr at 1:100 dilution. The incubation slides were then washed again three times in 1×PBS and were incubated with the FITC anti-rabbit IgG and Rhodamine anti-mouse IgG for 1 hr at 1:400 dilution. The cells were further washed and treated with DAPI (4′,6-diamidino-2′-phenylindole, dihydrochloride) (Thermo Scientific, USA) to stain the nucleus. Finally, the slides were washed and mounted in Pro Long Gold antifade mounting solution (Invitrogen, USA) and were viewed under the LSM 710 Meta confocal microscope (Zeiss) at 350 nm, 490 nm, and 540 nm excitation and 470 nm, 525 nm, and 625 nm emission for DAPI, FITC, and Rhodamine respectively. Six individual fields at 63× oil lens magnification were analyzed for the mean fluorescence intensity (MFI) in each channel. The co-localization correlation generated by the ZEN software (Zeiss).
Coimmunoprecipitation was done following protocol described Besson et al. with slight modification. See Besson et al. (2002) J Biol Chem 277, 22073-22084. […]

PKC-α = PKC-α translocation to membrane in SH-SY5Y cells (Western blot); type: cell-based, human; conditions: 0.27 nM, 0-60 min
Protocol: as §1, with “After the incubation, it was washed three times with TBS-T (Tris Buffered saline-Tween 20) and further incubated with alkaline phosphatase conjugated secondary antibody (Jackson Immunoresearch Laboratories, USA) at 1:10,000 dilution for 45 min. The membrane was finally washed three times with TBS-T and developed using the 1-step NBT-BCIP substrate (Pierce, USA).” left out, “For translocation assays, PKC activation was represented as the percentage of total protein in the membrane (membrane/cytosol+membrane).” left out
Equal amounts of proteins were loaded in each lane (20 μg) for both the cytosol and membrane fractions. Activation of PKC was calculated as the percentage of total PKC in the membrane (membrane/cytosol+membrane).

In the case of CCCCCC1CC1CC1CC1CCCCCCCC(=O)OC (stereo not shown) [DCPLA-ME, methyl 8-(2-((2-pentylcyclopropyl)methyl)cyclopropyl)octanoate], the “synaptophysin expression by Western Blot (in words)” value (synaptophysin) is reported as “maintained the expression similar to control”, the “increase of dendritic branching” value (rat hippocampal neurons; 48 h) is reported as 2 fold and the “Fractal dimension (dendritic branching)” value (rat hippocampal neurons; 48 hr) is reported as 1.40±0.03.
In the case of CCC/C=C/C=C/C(=O)O[C@H]1/C(=C/C(=O)OC)C[C@H]2C[C@H]([C@@H](C)O)OC(=O)C[C@H](O)C[C@@H]3C[C@H](OC(C)=O)C(C)(C)C(O)(C[C@@H]4C/C(=C/C(=O)OC)C[C@H](/C=C/C(C)(C)[C@]1(O)O2)O4)O3 [Bryostatin-1], the “acute LD50” value [1] is given as 0.068 mg/kg, the “PKC-α-RACK1 interaction by RACK1 immunoprecipitation (in words)” value (PKC-α-RACK1) is given as “increased at 15 min but decreased below the control level at 30 min” and the “colocalization correlation R” value (PKC-α-RACK1) is given as 0.58. The “PKC-α translocation over time (in words)” value (PKC-α) was “came down to baseline at 60 min”.
